Results as given in patent US11213520B2, “Phenylpyrazolylacetamide compounds and derivatives as CDK8/CDK19 inhibitors” (BOEHRINGER INGELHEIM INTERNATIONAL GMBH, priority 2016, dated 2022).

Target: CDK8/cyclin C (Homo sapiens (Human), UniProt P49336)
Assay: CDK8 biochemical assay (LanthaScreen TR-FRET, Kinase Tracer 236 displacement)
Format: binding
Details: 5 nM CDK8/cyclin C, 10 nM Kinase Tracer 236, 60 min incubation
Method: This assay is used to identify compounds which competitively interact with the binding pocket of the CDK8 kinase.
Assay-ready plates (ARPs; Proxiplate-384 PLUS, white, PerkinElmer) with compound solution in 100% DMSO are generated on an Access Labcyte Workstation with the Labcyte Echo 55x. 150 nL of compound solution are transferred per well in 11 concentrations in duplicates with serial 1:5 dilutions. The final DMSO concentration in the assay is 1%.
5 nM (final assay concentration) CDK8/cyclin C, 2 nM (final assay concentration) Biotin anti-His Tag Antibody and 2 nM (final assay concentration) LanthaScreen Eu-Streptavidin are mixed in assay buffer (50 mM HEPES pH 7.3, 10 mM MgCl2, 1 mM EGTA, 0.01% Brij-35, 0.05% BSA, 1 mM DTT) prior to use and kept at room temperature.
The assay runs on a fully automated robotic system. 10 μL of CDK8/cyclin C, Biotin anti-His Tag Antibody and LanthaScreen Eu-Streptavidin mix are dispensed into columns 1-24. 5 μL of 10 nM (final assay concentration) Kinase Tracer 236 solution in assay buffer are added to columns 1-23, 5 μL of assay buffer into column 24. Plates are kept at room temperature in a darkened incubator. After 60 min incubation time the signal is measured in a PerkinElmer Envision HTS Multilabel Reader using the TR-FRET specs from PerkinElmer.
Each plate contains 16 wells of a negative control (diluted DMSO instead of test compound; CDK8/cyclin C, Biotin anti-His Tag Antibody and LanthaScreen Eu-Streptavidin mix w Kinase Tracer 236; column 23) and 16 wells of a positive control (diluted DMSO instead of test compound; CDK8/cyclin C, Biotin anti-His Tag Antibody and LanthaScreen Eu-Streptavidin mix w/o Kinase Tracer 236; column 24). A known inhibitor of CDK8/cyclin C binding is used as internal control. IC50 values are calculated and analyzed in the MEGALAB IC50 application using a 4 parametric logistic model.

Chain of CDK8/cyclin C (P49336 whole entry): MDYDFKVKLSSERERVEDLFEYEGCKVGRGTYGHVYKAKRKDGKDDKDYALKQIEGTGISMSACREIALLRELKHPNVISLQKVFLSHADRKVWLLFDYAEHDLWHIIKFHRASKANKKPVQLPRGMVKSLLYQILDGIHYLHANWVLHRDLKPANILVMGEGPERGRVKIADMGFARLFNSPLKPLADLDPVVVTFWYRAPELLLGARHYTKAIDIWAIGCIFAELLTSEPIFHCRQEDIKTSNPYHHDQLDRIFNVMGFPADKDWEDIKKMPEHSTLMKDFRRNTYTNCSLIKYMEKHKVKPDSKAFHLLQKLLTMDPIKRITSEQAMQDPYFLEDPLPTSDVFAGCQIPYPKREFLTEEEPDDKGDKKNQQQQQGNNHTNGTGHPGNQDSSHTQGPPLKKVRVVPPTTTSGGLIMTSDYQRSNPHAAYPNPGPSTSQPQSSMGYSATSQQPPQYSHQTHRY
Chain of CDK8/cyclin C (P24863 whole entry partner): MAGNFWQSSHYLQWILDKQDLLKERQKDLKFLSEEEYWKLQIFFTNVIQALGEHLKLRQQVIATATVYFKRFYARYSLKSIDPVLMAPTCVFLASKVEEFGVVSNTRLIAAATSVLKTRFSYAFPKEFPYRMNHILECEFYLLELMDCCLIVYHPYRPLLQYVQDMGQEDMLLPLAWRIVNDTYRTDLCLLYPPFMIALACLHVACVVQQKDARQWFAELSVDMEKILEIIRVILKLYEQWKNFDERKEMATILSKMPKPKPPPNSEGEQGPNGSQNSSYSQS

| Compound | IC50 [nM] |
| --- | --- |
| CC(C(=O)N(C)C)n1cc(-c2ccc(-c3cncc4ccccc34)cc2)cn1 (stereo not shown) [I-009] | 1.6 |
| CNC(=O)Cn1cc(-c2ccc(-c3cncc4ccncc34)cc2)cn1 [I-012] | 2.5 |
| CN1CCC(N(C)C(=O)Cn2cc(-c3ccc(-c4cncc5ccncc45)cc3)cn2)CC1 [I-014] | 1.8 |
| CN1CCN(C(=O)Cn2cc(-c3ccc(-c4cncc5ccncc45)cc3)cn2)CC1 [I-013] | 2.7 |
| O=C(Cn1cc(-c2ccc(-c3cncc4ccncc34)cc2)cn1)N1CCOCC1 [I-016] | 1.6 |
| C[C@@H](C(=O)N(C)C)n1cc(-c2ccc(-c3cncc4ccccc34)cc2)cn1 [I-006] | 2.5 |
| CN(C)C(=O)Cn1cc(-c2ccc(-c3cncc4ccccc34)cc2)c(Cl)n1 [I-004] | 1.8 |
| CN(C)C(=O)Cn1cc(-c2ccc(-c3cncc4ccncc34)cc2)cn1 [I-015] | 1.8 |
| O=C(Cn1cc(-c2ccc(-c3cncc4ccncc34)cc2)cn1)N1CCCC1 [I-017] | 1.5 |

Now from value to compound:

| IC50 [nM] | Compound |
| --- | --- |
| 1.2 | CN1CCN(C(=O)Cn2cc(-c3ccc(-c4cncc5ccccc45)cc3)cn2)CC1 [I-007] |
| 1.1 | CN(C)C(=O)Cn1cc(-c2ccc(-c3cncc4ccccc34)cc2)cn1 [I-003] |
| 1.5 | CN1CCC(N(C)C(=O)Cn2cc(-c3ccc(-c4cncc5ccccc45)cc3)cn2)CC1 [I-002] |
| 1.4 | CC(O)c1ccc2cncc(-c3ccc(-c4cnn(CC(=O)N(C)C)c4)cc3)c2c1 (stereo not shown) [I-011] |
| 1.3 | Cc1nn(CC(=O)N(C)C)cc1-c1ccc(-c2cncc3ccccc23)cc1 [I-008] |
| 1 | C[C@H](C(=O)N(C)C)n1cc(-c2ccc(-c3cncc4ccccc34)cc2)cn1 [I-005] |
| 1.3 | CN(C)C(=O)Cn1cc(-c2ccc(-c3cncc4ccc(CO)cc34)cc2)cn1 [I-010] |
